In US10513559B2, “Amatoxin-armed therapeutic cell surface binding components designed for tumour therapy” (Deutsches Krebsforschungszentrum, priority 2009, dated 2019):
pIC50: −log10 of the molar value.

Legend:
MCF-7 cells = assay: proliferation assay, [3H]-thymidine incorporation, MCF-7; format: cell-based, human; conditions: 72 or 96 h, amanitin concentration, read-out: IC50 of inhibition of cell proliferation
Description: Inhibition of cell growth by amanitin-IgG conjugates was determined by incorporation of [^3H]-thymidine. Serial dilutions of amanitin-huHEA125 and amanitin in complete medium (RPMI 1640 supplemented with 10% heat-inactivated FCS, 2 mM L-glutamine and 1 mM sodium pyruvate) ranging from 2×10^−5 M to 6×10^−13 M were prepared in triplicates in a volume of 100 μl in the wells of a 96 well flat-bottom tissue culture microtiter plate. […] Plates were incubated in a humidified atmosphere at 37° C. and 5% CO2 for 72 or 96 h. At 20 h before the end of the assay, 1 μCi of [^3H]-thymidine was added. Subsequently, plates were processed with a Tomtec cell harvester and the incorporated radioactivity was determined by liquid scintillation counting (Wallac Betaplate Liquid Scintillation Counter, PerkinElmer Life and Analytical Sciences) and given as cpm.
Three examples of growth inhibition induced by different amanitin-IgG conjugates are depicted in FIGS. 5, 6, and 9. In all three experiments MCF-7 cells were used. […] In the experiment outlined in FIG. 6 huHEA125-Amanitin4 was compared with an alpha-phalloidin huHEA125 conjugate and with free Amanitin.

[1] = system: MCF-7 breast cancer cells; assay: binding of conjugates to MCF-7 cells by flow cytometry; set-up: species or system human; conditions: 1 μg/ml, 1 h on ice; FITC-labeled secondary antibody; identical antibody amounts
Description: The abbreviation FL1-H stands for “fluorescence 1 height” which means the intensity of fluorescence 1, i.e. the green channel for FITC.
Binding of huHEA125-amanitin and huHEA125-phalloidin conjugates versus non-conjugated huHEA125 antibody was analyzed by flow cytometry. MCF-7 target cells were washed twice in FACS buffer (Dulbecco's PBS with 1% heat-inactivated fetal calf serum and 0.1% sodium azide) counted and adjusted to 2×10^7 cells per ml. Fifty μl of cell suspension was given to each well of a 96 well U-bottom microtiter plate. Immunotoxins huHEA125-amanitin1, huHEA125-amanitin4 and huHEA125-phalloidin as well as unconjugated huHEA125 antibody were added at a concentration of 1 μg/ml in a volume of 100 μl per well and incubated for 1 h on ice. The plate was centrifuged (2 min at 2000 rpm) and the supernatant was removed from the cells. Cells were re-suspended in 150 μl of FACS buffer and centrifuged again. Subsequently, 100 μl of FITC-labeled F(ab′)2 goat anti-human IgG (H+L) secondary antibody was added per well and incubated again for 1 h on ice. After two washing steps by centrifugation, cells were taken up in 100 μl/well of propidium iodide solution (1 μg/ml in FACS buffer) allowing discrimination of dead cells. Analysis was performed on a FACScan cytometer (Becton and Dickinson, Heidelberg, Germany) using CellQuest software.

Substance | pIC50 (MCF-7 cells) | mean fluorescence intensity (MFI) [1]
Amanitin [reference compound] | ~7.00 | 
huHEA125: chimeric anti-EpCAM antibody: mouse HEA125 variable domains, human kappa light and IgG1 heavy constant chains (SEQ ID NO: 1/2, 11) |  | 1094
α-Amanitin-glutarate-huHEA125 [huHEA125-Amanitin3] | ~11.70 | 
